The text below walks through data of patent US9040749B2, “Borazine derivatives” (UNIVERSITE DE NAMUR, priority 2011, dated 2015).

Data set [1] can be described thus: Solubility in organic solvents. It counts as physicochemical.
Data set [2] can be described thus: Stability at air and room temperature, NMR spectra at t=0 and t=10 months. It counts as physicochemical. Conditions: NMR spectra at t=0 and t=10 months (FIG. 5).

Molecules are shown by their SMILES.

On to `Cc1cc(C)c(B2N(c3ccccc3)B(c3c(C)cc(C)cc3C)N(c3ccccc3)B(c3c(C)cc(C)cc3C)N2c2ccccc2)c(C)c1` [borazine derivative 1, N,N′,N″-triphenyl-B,B,B″-tri(2,4,6-trimethyl)phenyl borazine], for which the Solubility in data set [1] (solvent: Chloroform) stood at 54 Milligram/milliliter; in data set [1] (solvent: Dichloromethane) it was 102 Milligram/milliliter; in data set [1] (solvent: Ethyl acetate) it was 62 Milligram/milliliter; in data set [1] (solvent: Toluene), 45 Milligram/milliliter. Besides, in data set [2], the “Stability at air and room temperature” value is listed as “excellent stability”.
For `CCCCCCCCCCCCc1ccc(N2B(c3c(C)cc(C)cc3C)N(c3ccc(CCCCCCCCCCCC)cc3)B(c3c(C)cc(C)cc3C)N(c3ccc(CCCCCCCCCCCC)cc3)B2c2c(C)cc(C)cc2C)cc1` [borazine derivative 2, N,N′,N″-tri(4-dodecyl)phenyl-B,B,B″-tri(2,4,6-trimethyl)phenyl borazine], the “Solubility (miscibility)” value in data set [1] (compound is an oil, toluene, ethyl acetate, dichloromethane, benzene and chloroform) was “miscible”.
